This assay relates to HUVECs. The assay can be described thus: Membrane potential by DiOC5(3) flow cytometry in HUVECs. The settings on record: 5 h exposure. Format: cell-based, human. The procedure:
In an embodiment the membrane potential can be determined by: HUVEC and HaCaT cells were seeded at a density of 4×10^4 cells/cm^2 and in 24-well plates and cultured for 24 h. Either LL37 Au-NPs or Au-NPs suspended in culture medium at different concentrations (25, 50, 100 and 200 μg/mL, n=3) were added to cells. Soluble LL37 were also used in the concentration of 0.5, 1, 10, 30, 60 μg/mL. After 5 and 48 h, cells were harvested, resuspended in medium with 5 nM of DiOC5(3) (Sigma-Aldrich) and incubated for 5 min at room temperature in the dark, prior to the analysis with the flow cytometer (FACSCalibur, BD Biosciences). Cells treated with gramicidin (10 μM) or valinomycin (10 μM) were used as controls for cell depolarization and hyperpolarization, respectively.
Background: In flow cytometry, cells or beads pass a laser one at a time.

Turning to `CC[C@H](C)[C@H](NC(=O)[C@H](CCCCN)NC(=O)[C@H](CCC(=O)O)NC(=O)[C@H](CCCCN)NC(=O)[C@H](CO)NC(=O)[C@H](CCCCN)NC(=O)[C@H](CCCNC(=N)N)NC(=O)[C@H](Cc1ccccc1)NC(=O)[C@H](Cc1ccccc1)NC(=O)[C@H](CC(=O)O)NC(=O)CNC(=O)[C@H](CC(C)C)NC(=O)[C@@H](N)CC(C)C)C(=O)NCC(=O)N[C@@H](CCCCN)C(=O)N[C@@H](CCC(=O)O)C(=O)N[C@@H](Cc1ccccc1)C(=O)N[C@@H](CCCCN)C(=O)N[C@@H](CCCNC(=N)N)C(=O)N[C@H](C(=O)N[C@H](C(=O)N[C@@H](CCC(N)=O)C(=O)N[C@@H](CCCNC(=N)N)C(=O)N[C@H](C(=O)N[C@@H](CCCCN)C(=O)N[C@@H](CC(=O)O)C(=O)N[C@@H](Cc1ccccc1)C(=O)N[C@@H](CC(C)C)C(=O)N[C@@H](CCCNC(=N)N)C(=O)N[C@@H](CC(N)=O)C(=O)N[C@@H](CC(C)C)C(=O)N[C@H](C(=O)N1CCC[C@H]1C(=O)N[C@@H](CCCNC(=N)N)C(=O)N[C@H](C(=O)N[C@@H](CCC(=O)O)C(=O)N[C@@H](CO)C(=O)N[C@@H](CS)C(N)=O)[C@@H](C)O)C(C)C)[C@@H](C)CC)C(C)C)[C@@H](C)CC` [LL37], the concentration causing depolarization entry was “above 30 μg/mL” and the concentration causing hyperpolarization result is recorded as “below 30 μg/mL”.

The values above are taken from patent publication US20180264134A1, “A COMPOSITION OF GOLD NANOPARTICLES HAVING ANTIMICROBIAL PEPTIDES BOUND ON THEIR SURFACE FOR USE THE TREATMENT OF WOUND HEALING OR IN THE TREATMENT OF ISCHEMIC OR VASCULAR DISEASES OR IN THE TREATMENT OF SKIN DISORDERS” (priority 2015, published 2018).
